These are literature values, as cited in US20110229418A1, “Compositions and Methods of Treating and Preventing Lung Cancer” (priority 2010, published 2011).

Like-named read-outs stand apart in the source and are kept apart here.

For one data set, the system named is Lewis lung LLC1 cells. The following applies: mice injected with Lewis lung LLC1 cells, orally administered.
For data set [1] the following is noted: patients with type 2 diabetes, compared with those that did not use metformin.
For data set [2] the following is noted: long-term treatment.
Data set [3] concerns lung cancer cell. Conditions: in vitro.
Data set [4] has as its system lung cancer cell. Conditions: in vivo.
For data set [5], the system named is tobacco carcinogen-induced lung tumorigenesis. The following applies: mice.
Data set [6] has as its system AMP activated protein kinase (AMPK) pathway.

On to `CN(C)C(=N)N=C(N)N` [metformin], for which the tumor growth entry in the data set on Lewis lung LLC1 cells (control diet) is “no effect on tumor growth”; with Lewis lung LLC1 cells (high-energy diet), “reduce tumor growth”. Further, in data set [1], the cancer mortality entry is “lower cancer mortality”. In addition, in data set [2], the adverse effects entry was “few adverse effects”. Further, in the data set on human lung cancer cells, the “sensitization to ionizing radiation” value is listed as “sensitizes human lung cancer cells to ionizing radiation”. Moreover, the “lung cancer cell growth” value with lung cancer cell [3] and in the data set on lung cancer cell [4] was “inhibited” each time. Besides, the “tobacco carcinogen-induced lung tumorigenesis” value in data set [5] is given as “prevents tobacco carcinogen-induced lung tumorigenesis”. Further, the AMPK pathway activation entry in data set [6] was “activates the AMP activated protein kinase (AMPK) pathway”.
